In patent publication US20250049798A1, “WEE1 PROTEIN KINASE DEGRADATION AGENT AND USE THEREOF” (HANGZHOU GLUBIO PHARMACEUTICAL CO. LTD., priority 2021, published 2025):

Biological target: HiBiT tagged Wee1 (Homo sapiens, UniProt P30291)
Experiment: Wee1 protein degradation assay (HiBiT assay)
Assay type: cell-based
Settings: engineered HT-1080 cells, 20 hours

HiBiT tagged Wee1, sequence (P30291 whole entry): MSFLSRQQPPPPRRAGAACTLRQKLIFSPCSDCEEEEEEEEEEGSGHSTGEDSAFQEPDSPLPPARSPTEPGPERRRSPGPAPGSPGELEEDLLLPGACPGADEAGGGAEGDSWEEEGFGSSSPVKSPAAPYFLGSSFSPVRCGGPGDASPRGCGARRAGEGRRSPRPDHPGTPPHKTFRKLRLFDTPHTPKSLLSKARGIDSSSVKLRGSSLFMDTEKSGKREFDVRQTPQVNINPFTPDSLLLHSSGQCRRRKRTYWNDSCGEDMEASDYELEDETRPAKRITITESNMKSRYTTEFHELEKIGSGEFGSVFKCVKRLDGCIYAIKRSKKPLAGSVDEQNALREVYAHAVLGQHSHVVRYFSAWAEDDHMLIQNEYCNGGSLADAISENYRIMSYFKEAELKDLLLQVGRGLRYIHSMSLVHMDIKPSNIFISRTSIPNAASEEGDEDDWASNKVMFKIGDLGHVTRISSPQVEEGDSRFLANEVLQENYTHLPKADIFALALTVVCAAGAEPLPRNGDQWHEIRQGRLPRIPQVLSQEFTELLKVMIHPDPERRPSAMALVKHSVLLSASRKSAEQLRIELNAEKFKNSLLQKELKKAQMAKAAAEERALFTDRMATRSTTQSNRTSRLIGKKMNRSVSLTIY

Row | DC50 [nM] | Structure (SMILES)
1 | < 100 | C=CCn1c(=O)c2cnc(Nc3ccc(N4CCC(CN5CCC(c6ccc(NC7CCC(=O)NC7=O)cc6)CC5)CC4)cc3)nc2n1-c1cccc(C(C)(C)O)n1 (stereo not shown) [Compound 72]

Same assay, conditions: engineered HT-1080 cells, 20 hours; maximum percentage of Wee1 degradation; read-out: HiBiT Wee1: Dmax

Row | Dmax [%] | Structure (SMILES)
2 | > 75 | C=CCn1c(=O)c2cnc(Nc3ccc(N4CCC(CN5CCC(c6ccc(NC7CCC(=O)NC7=O)cc6)CC5)CC4)cc3)nc2n1-c1cccc(C(C)(C)O)n1 (stereo not shown) [Compound 72]

System: not listed separately
Experiment: Pharmacokinetic study in mice (IV and PO)
Assay type: in vivo
Settings: PO (10 mg/kg) vs IV (2 mg/kg), male CD1 mice
Protocol: Objective: the objective of this study was to determine the pharmacokinetics of test compound following intravenous (IV) and oral (PO) administration to male CD1 mice.
Materials: Male CD1 mouse (20-30 g, 6-8 weeks, Zhejiang Vital River Laboratory Animal Technology Co., Ltd.).
The CD1 mice were administered with the test article intravenously via tail vein at 2 mg/kg or orally at 10 mg/kg. The animals had free access to food and water. After dose administration, blood was collected from the dorsal metatarsal vein at 5 min (0.0833 h, IV only), 15 min (0.25 h), 30 min (0.5 h), 60 min (1 h), 2 h, 4 h, 6 h, 8 h and 24 h. Blood samples were placed in an anticoagulant tube with EDTA-K2, mixed adequately and centrifuged at 4° C., 4000 g for 5 minutes to get the plasma. The plasma samples were stored at −75±15° C. until analyzed by LC-MS/MS. The PK parameters were calculated using non-compartmental model by Phoenix WinNonlin 6.1 (Linear/log trapezoidal).

Row | F [%] | Structure (SMILES)
3 | 80.2 | C=CCn1c(=O)c2cnc(Nc3ccc(N4CCC(CN5CCC(c6ccc(NC7CCC(=O)NC7=O)cc6)CC5)CC4)cc3)nc2n1-c1cccc(C(C)(C)O)n1 (stereo not shown) [Compound 72]

Same assay, conditions: mouse, plasma; IV (2 mg/kg), male CD1 mice

Row | AUC(0-inf) [ng·h/mL] | clearance [mL/min/kg] | Structure (SMILES)
4 | 1130 | 29.5 | C=CCn1c(=O)c2cnc(Nc3ccc(N4CCC(CN5CCC(c6ccc(NC7CCC(=O)NC7=O)cc6)CC5)CC4)cc3)nc2n1-c1cccc(C(C)(C)O)n1 (stereo not shown) [Compound 72]

Same assay, conditions: mouse, plasma; IV (2 mg/kg), male CD1 mice; read-out: T½ (converted)

Row | half-life [h] | Structure (SMILES)
5 | 2.81 | C=CCn1c(=O)c2cnc(Nc3ccc(N4CCC(CN5CCC(c6ccc(NC7CCC(=O)NC7=O)cc6)CC5)CC4)cc3)nc2n1-c1cccc(C(C)(C)O)n1 (stereo not shown) [Compound 72]

Same assay, conditions: mouse, plasma; PO (10 mg/kg), male CD1 mice

Row | AUC(0-inf) [ng·h/mL] | Cmax [ng/mL] | Structure (SMILES)
6 | 4530 | 550 | C=CCn1c(=O)c2cnc(Nc3ccc(N4CCC(CN5CCC(c6ccc(NC7CCC(=O)NC7=O)cc6)CC5)CC4)cc3)nc2n1-c1cccc(C(C)(C)O)n1 (stereo not shown) [Compound 72]

Same assay, conditions: mouse, plasma; PO (10 mg/kg), male CD1 mice; read-out: T½ (converted)

Row | half-life [h] | Structure (SMILES)
7 | 2.85 | C=CCn1c(=O)c2cnc(Nc3ccc(N4CCC(CN5CCC(c6ccc(NC7CCC(=O)NC7=O)cc6)CC5)CC4)cc3)nc2n1-c1cccc(C(C)(C)O)n1 (stereo not shown) [Compound 72]

System: NCI-H1048 cells
Experiment: NCI-H1048 cell proliferation assay (CTG assay)
Assay type: cell-based
Settings: Homo sapiens, 120 hours, read-out: CTG cellular assay_H1048: IC50
Outline: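 NCI-H1048 small cell lung cancer cells (RPMI-1640, 10% FBS) were exposed to 10-point half-log compound dilutions from 10 μM to 0.316 nM for 120 h at 37° C., 5% CO2. Viability was read by CellTiter-Glo luminescence and normalized to DMSO as percent of control. EC50 and DC50 were fitted with a four-parameter logistic model.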

Row | IC50 [nM] | Structure (SMILES)
8 | ≤ 25 | C=CCn1c(=O)c2cnc(Nc3ccc(N4CCC(CN5CCC(c6ccc(NC7CCC(=O)NC7=O)cc6)CC5)CC4)cc3)nc2n1-c1cccc(C(C)(C)O)n1 (stereo not shown) [Compound 72]
